Reference: paper PMC11455950, “Effects of SZV-2649, a new multiple ion channel inhibitor mexiletine analogue” (Scientific Reports, 2024)

Tests used:
[1] = molecular target: T1, hERG (Kv11.1) potassium channel (Homo sapiens, UniProt Q12809); assay: Automated planar patch-clamp, hERG current in HEK cells; format: cell-based
T1 construct: host or cells: HEK293
Excerpt: Inhibition of the hERG channel, the pore forming α-subunit of the native IKr cardiac potassium channel, is expected to prolong repolarization both in the atria and in the ventricles. The GIRK channel is the pore forming α-subunit of the acetylcholine-activated potassium channel and plays an important role in atrial electrophysiology. Its inhibition can be expected to decrease the acetylcholine-activated potassium current (IKACh), a current that plays an important role in the pathogenesis of AF. Therefore, the effects of SZV-2649 on the hERG and GIRK ion channels were studied by the planar patch-clamp technique in mammalian HEK cell lines stably expressing these channels.
The currents conducted by the hERG and GIRK channels were measured by using planar patch-clamp technology[,[47],[68] in the whole-cell configuration with a four-channel medium-throughput fully automated patch-clamp platform (Patchliner Quattro, Nanion Technologies GmbH, Munich, Germany) with integrated temperature control. Data acquisition and online analysis were performed with an EPC-10 Quadro patch-clamp amplifier (HEKA Elektronik Dr Schulze GmbH, Lambrecht/Pfalz, Germany), using PatchMaster 2.65 software (HEKA Elektronik Dr. Schulze GmbH). The pipetting protocols were controlled by PatchControlHT 1.09.30 software (Nanion Technologies GmbH). […]

[2] = system: late sodium current (INaL); assay: Whole-cell patch-clamp, late sodium current in dog ventricular myocytes; format: cell-based; settings: 10 µM, dog left ventricular myocytes
Protocol: The effects of SZV-2649 on transmemrane ionic currents were investigated in dog cardiac myocytes after a 5-minute superfusion of the drug.
The late sodium current (INaL) was investigated by application of 2-second-long test pulses to -20 mV from the holding potential of -120 mV with the pulsing cycle length of 5 s. In the internal (pipette) solution, KCl was replaced by 125 mM CsCl to block potassium currents and the external solution contained 1 µM nisoldipine, 0.5 µM HMR-1556 and 0.1 µM dofetilide in order to block ICaL, IKs and IKr currents, respectively.
Ventricular myocytes from Beagle dogs were enzymatically dissociated as described in detail previously. A single droplet of cell suspension was placed in a transparent recording chamber mounted on the stage of an inverted microscope (Olympus IX51, Olympus, Tokyo, Japan), and individual myocytes were allowed to settle and adhere to the chamber bottom for at least 5–10 min before superfusion was initiated and maintained by gravity. Only rod-shaped cells with clear striations were used. […]
The membrane currents were recorded with Axopatch-200B amplifiers (Molecular Devices, Sunnyvale, CA, USA) by means of the whole-cell configuration of the patch-clamp technique. […]

[3] = system: dog right ventricular muscle preparations; assay: Conventional microelectrode action potential recording, dog ventricular muscle; settings: 10 µM

T1 sequence (Q12809 whole entry): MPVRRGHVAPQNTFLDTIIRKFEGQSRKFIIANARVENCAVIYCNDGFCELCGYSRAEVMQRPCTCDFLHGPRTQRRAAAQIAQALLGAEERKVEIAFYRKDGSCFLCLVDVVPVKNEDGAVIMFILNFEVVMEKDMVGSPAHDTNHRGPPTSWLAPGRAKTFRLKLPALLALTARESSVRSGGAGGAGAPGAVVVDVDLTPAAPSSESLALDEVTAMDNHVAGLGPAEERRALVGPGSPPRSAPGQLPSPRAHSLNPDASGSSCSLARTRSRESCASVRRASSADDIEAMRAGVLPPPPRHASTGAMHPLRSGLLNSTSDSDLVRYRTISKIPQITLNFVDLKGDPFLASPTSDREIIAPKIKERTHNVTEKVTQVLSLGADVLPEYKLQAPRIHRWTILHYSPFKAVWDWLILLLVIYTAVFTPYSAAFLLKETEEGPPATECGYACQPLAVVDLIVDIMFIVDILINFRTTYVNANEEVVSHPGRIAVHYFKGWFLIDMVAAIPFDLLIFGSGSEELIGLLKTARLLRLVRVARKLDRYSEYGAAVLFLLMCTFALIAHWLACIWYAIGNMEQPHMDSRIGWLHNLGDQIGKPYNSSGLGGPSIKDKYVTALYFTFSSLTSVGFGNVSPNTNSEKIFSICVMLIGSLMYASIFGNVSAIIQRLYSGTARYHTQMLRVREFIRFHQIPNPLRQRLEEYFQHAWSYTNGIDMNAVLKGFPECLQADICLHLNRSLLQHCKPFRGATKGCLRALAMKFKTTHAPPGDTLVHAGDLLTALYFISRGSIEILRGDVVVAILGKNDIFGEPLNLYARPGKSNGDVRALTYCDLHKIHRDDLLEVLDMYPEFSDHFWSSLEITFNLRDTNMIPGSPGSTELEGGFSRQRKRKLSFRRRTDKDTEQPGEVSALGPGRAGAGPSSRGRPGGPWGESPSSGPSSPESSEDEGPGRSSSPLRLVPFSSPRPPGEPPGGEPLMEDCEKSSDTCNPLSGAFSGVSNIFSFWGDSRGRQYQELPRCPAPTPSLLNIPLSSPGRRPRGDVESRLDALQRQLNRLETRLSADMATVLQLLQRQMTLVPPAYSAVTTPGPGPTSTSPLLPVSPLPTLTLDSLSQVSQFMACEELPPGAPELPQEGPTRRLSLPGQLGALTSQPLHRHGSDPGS

CC(N)COc1c(I)cc(C#N)cc1I.Cl (centres unmarked) [SZV-2649, 4-(2-aminopropoxy)-3,5-diiodobenzonitrile hydrochloride]
IC50 ([1]; HEK cells (abstract)): 342 nM | IC50 at 3 min ([1]; human, HEK293 cells stably expressing hERG (Kv11.1), pH 7.4, printed in picture of Fig. 2b, read-out: Effect on hERG: EC50): 342 nM | Effect on magnitude of INaL [2]: significantly decreased | Onset kinetics of Vmax block ([3]; after 1 min rest, stimulation cycle length 400 ms): 3.1 | Effect on Vmax as a function of stimulation cycle length ([3]; dog ventricular muscle, steady-state stimulation): decreased Vmax at cycle lengths shorter than 2000 ms
